Consider two compounds from patent US7737151B2, “Pyrazine kinase inhibitors” (Vertex Pharmaceuticals Incorporated, priority 2005, dated 2010).

Broadly, the Ki is a dissociation constant, usually derived from enzyme kinetics or from competition with a known ligand.

Structures are written as SMILES.

Common to all, as to assay type: biochemical
The target of one assay is T1, Aurora-2 (Aurora A) (Homo sapiens, UniProt O14965).
T1 sequence (O14965 1-403): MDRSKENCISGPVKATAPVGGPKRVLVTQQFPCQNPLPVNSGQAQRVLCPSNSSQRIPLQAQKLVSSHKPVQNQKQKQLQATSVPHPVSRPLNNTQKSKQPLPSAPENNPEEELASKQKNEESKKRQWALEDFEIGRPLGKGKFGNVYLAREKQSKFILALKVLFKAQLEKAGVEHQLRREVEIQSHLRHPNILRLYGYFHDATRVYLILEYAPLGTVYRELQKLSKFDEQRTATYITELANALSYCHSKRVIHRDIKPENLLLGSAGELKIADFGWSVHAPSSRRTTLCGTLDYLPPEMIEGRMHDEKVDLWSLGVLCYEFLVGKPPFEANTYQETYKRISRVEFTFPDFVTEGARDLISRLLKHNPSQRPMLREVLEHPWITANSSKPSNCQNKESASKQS
Description: Aurora-2 (Aurora A) Inhibition Assay, coupled enzyme assay. Particulars: 400 μM ATP, 570 μM Kemptide, 40 nM Aurora-2, 30° C. Here is the method:
Compounds are screened for their ability to inhibit Aurora-2 using a standard coupled enzyme assay (Fox et al., Protein Sci., (1998) 7, 2249). Assays are carried out in a mixture of 100 mM Hepes (pH7.5), 100 mM MgCl2, 1 mM DTT, 25 mM NaCl, 2.5 mM phosphoenolpyruvate, 300 μM NADH, 30 μg/ml pyruvate kinase and 10 μg/ml lactate dehydrogenase. Final substrate concentrations in the assay are 400 μM ATP (Sigma Chemicals) and 570 μM peptide (Kemptide, American Peptide, Sunnyvale, Calif.). Assays are carried out at 30° C. and in the presence of 40 nM Aurora-2.
An assay stock buffer solution is prepared containing all of the reagents listed above, with the exception of Aurora-2 and the test compound of interest. 55 μl of the stock solution is placed in a 96 well plate followed by addition of 2 μl of DMSO stock containing serial dilutions of the test compound (typically starting from a final concentration of 7.5 μM). The plate is preincubated for 10 minutes at 30° C. and the reaction initiated by addition of 10 μl of Aurora-2. Initial reaction rates are determined with a Molecular Devices SpectraMax Plus plate reader over a 10 minute time course. IC50 and Ki data are calculated from non-linear regression analysis using the Prism software package (GraphPad Prism version 3.0cx for Macintosh, GraphPad Software, San Diego Calif., USA). Compounds I-1 and I-2 inhibit Aurora-2 at a Ki value of <0.1 uM.

The target in a further assay is T2, FLT-3 (Homo sapiens, UniProt P36888).
T2 sequence (P36888 27-993): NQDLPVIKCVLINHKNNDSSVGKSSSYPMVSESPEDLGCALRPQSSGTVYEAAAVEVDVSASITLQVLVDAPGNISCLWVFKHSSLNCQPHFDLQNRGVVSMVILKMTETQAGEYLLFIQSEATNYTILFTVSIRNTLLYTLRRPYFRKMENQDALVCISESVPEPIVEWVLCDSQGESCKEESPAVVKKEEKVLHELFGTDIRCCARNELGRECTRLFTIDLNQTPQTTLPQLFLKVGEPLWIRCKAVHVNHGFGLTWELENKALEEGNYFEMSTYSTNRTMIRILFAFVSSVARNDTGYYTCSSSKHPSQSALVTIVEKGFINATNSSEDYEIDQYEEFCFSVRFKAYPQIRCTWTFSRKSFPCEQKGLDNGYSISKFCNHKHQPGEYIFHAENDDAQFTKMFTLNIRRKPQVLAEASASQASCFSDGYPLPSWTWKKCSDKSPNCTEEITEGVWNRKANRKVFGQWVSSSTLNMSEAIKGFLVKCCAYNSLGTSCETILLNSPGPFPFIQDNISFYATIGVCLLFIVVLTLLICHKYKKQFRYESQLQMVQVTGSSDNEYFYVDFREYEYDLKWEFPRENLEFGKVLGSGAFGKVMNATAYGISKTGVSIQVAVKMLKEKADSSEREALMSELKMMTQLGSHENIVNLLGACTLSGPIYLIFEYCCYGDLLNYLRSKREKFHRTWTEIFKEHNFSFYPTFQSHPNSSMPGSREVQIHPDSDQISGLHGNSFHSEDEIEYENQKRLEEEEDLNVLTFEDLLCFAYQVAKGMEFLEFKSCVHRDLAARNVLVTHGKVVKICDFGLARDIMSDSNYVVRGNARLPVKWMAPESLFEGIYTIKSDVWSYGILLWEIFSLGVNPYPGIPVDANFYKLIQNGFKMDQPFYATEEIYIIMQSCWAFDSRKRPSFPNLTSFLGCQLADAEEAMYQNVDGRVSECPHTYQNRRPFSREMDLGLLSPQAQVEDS
Description: FLT-3 Inhibition Assay, radiometric filter-binding. Particulars: 90 μM ATP, 0.5 mg/ml pE4Y, room temperature. As for the experimental part: Compounds are screened for their ability to inhibit FLT-3 activity using a radiometric filter-binding assay. This assay monitors the 33P incorporation into a substrate poly(Glu, Tyr) 4:1 (pE4Y). Reactions are carried out in a solution containing 100 mM HEPES (pH 7.5), 10 mM MgCl2, 25 mM NaCl, 1 mM DTT, 0.01% BSA and 2.5% DMSO. Final substrate concentrations in the assay are 90 μM ATP and 0.5 mg/ml pE4Y (both from Sigma Chemicals, St Louis, Mo.). The final concentration of a compound of the present invention is generally between 0.01 and 5 μM. Typically, a 12-point titration is conducted by preparing serial dilutions from 10 mM DMSO stock of test compound. Reactions are carried out at room temperature.
Two assay solutions are prepared. Solution 1 contains 100 mM HEPES (pH 7.5), 10 mM MgCl2, 25 mM NaCl, 1 mg/ml pE4Y and […] (containing 0.3 mCi of [γ-33^P]ATP for each reaction). Solution 2 contains 100 mM HEPES (pH 7.5), 10 mM MgCl2, 25 mM NaCl, 2 mM DTT, 0.02% BSA and 3 nM FLT-3. The assay is run on a 96 well plate by mixing 50 μl each of Solution 1 and […] of the compounds of the present invention. The reaction is initiated with Solution 2. […] The amount of ^33P incorporation into pE4y is analyzed by a Packard Top Count Microplate Scintillation Counter (Meriden, Conn.). […]

The target of another assay is Aurora-1 (Aurora B) (Homo sapiens, UniProt Q96GD4). Description: Aurora-1 (Aurora B) Inhibition Assay (Radiometric). Particulars: 800 μM ATP, Kemptide, 25° C.; read-out: Ki, Aurora-1 (Aurora B) radiometric assay (sentence prints Aurora-2). Here is the method:
An assay buffer solution is prepared which consisted of 25 mM HEPES (pH 7.5), 10 mM MgCl2, 0.1% BSA and 10% glycerol. A 22 nM Aurora-B solution, also containing 1.7 mM DTT and 1.5 mM Kemptide (LRRASLG), is prepared in assay buffer. To 22 μL of the Aurora-B solution, in a 96-well plate, is added 2 μl of a compound stock solution in DMSO and the mixture allowed to equilibrate for 10 minutes at 25° C. The enzyme reaction is initiated by the addition of 16 μl stock [γ-^33P]-ATP solution (˜20 nCi/μL) prepared in assay buffer, to a final assay concentration of 800 μM. The reaction is stopped after 3 hours by the addition of 16 μL 500 mM phosphoric acid and the levels of ^33P incorporation into the peptide substrate are determined by the following method. […] Levels of non-enzyme catalysed background radioactivity are determined by adding 16 μL of the 500 mM phosphoric acid to control wells, containing all assay components (which acts to denature the enzyme), prior to the addition of the [γ-^33P]-ATP solution. Levels of enzyme catalysed ^33P incorporation are calculated by subtracting mean background counts from those measured at each inhibitor concentration. […] Ki values are calculated from initial rate data by non-linear regression using the Prism software package (Prism 3.0, Graphpad Software, San Diego, Calif.). […]

Aurora-1 (Aurora B), sequence (Q96GD4 whole entry): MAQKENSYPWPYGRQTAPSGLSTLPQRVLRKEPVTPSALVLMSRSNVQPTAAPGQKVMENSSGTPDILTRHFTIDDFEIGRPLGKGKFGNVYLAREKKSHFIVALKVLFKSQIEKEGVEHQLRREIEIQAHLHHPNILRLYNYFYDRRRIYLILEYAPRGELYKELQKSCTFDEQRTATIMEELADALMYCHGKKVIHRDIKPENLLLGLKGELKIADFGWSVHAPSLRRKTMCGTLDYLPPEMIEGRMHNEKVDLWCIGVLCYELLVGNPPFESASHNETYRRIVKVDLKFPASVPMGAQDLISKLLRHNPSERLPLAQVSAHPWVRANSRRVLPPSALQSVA

On to `Cc1cnc(Nc2cncc(Sc3ccc(NC(=O)C4CC4)cc3)n2)s1` [Compound I-1, N-(4-(6-(5-methylthiazol-2ylamino)pyrazin-2-ylthio)phenyl)cyclopropanecarboxamide], for which the inhibition constant Ki was less than 100 nM at Aurora-2 (Aurora A) and less than 1000 nM at FLT-3.
For `Cc1cc(Nc2cncc(Sc3ccc(NC(=O)C4CC4)cc3)n2)[nH]n1` [Compound I-2, N-(4-(6-(3-methyl-1H-pyrazol-5-ylamino)pyrazin-2-ylthio)phenyl)cyclopropanecarboxamide], the Ki was less than 100 nM on Aurora-2 (Aurora A), less than 1000 nM at FLT-3 and less than 1000 nM at Aurora-1 (Aurora B).
